Source: patent US20240383856A1 (Zedira GmbH, priority 2021, published 2024)

Legend:
[1] = molecular target: T1, recombinant human transglutaminase 2 (Homo sapiens, UniProt P21980); test: Transglutaminase assay (DCC-assay): incorporation of dansylcadaverine into dimethylcasein; type: biochemical; conditions: recombinant human TG2 10 nM; dansylcadaverine incorporation into dimethylcasein; read-out: IC50 TG2
T1 construct: purchased Zedira T022
T1 sequence (P21980 1-687): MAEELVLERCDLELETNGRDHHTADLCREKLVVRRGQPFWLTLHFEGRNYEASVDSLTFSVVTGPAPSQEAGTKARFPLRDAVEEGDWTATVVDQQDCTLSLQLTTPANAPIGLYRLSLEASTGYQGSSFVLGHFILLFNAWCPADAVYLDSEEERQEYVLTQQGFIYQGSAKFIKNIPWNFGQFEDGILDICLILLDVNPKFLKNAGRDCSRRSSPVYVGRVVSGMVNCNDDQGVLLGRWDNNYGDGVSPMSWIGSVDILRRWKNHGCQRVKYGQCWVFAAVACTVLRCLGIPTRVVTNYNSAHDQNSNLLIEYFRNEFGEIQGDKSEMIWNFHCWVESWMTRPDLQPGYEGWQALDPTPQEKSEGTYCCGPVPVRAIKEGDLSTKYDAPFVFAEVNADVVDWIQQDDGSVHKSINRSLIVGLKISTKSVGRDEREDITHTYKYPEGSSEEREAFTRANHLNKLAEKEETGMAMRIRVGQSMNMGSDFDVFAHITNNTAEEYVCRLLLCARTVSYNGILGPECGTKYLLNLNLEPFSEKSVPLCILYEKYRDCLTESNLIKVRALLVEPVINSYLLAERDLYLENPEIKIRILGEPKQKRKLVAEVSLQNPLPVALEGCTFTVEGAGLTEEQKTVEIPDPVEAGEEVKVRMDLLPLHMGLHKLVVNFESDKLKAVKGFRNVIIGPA
Protocol: To illustrate the advantage of branched alkyl moieties over aromatic moieties, we refer to reference compounds Ref. 2 (ZED1227, U.S. Pat. No. 9,434,763 B2) and Ref. 3 (A8, ZED1047). Inhibition data were determined using the classical fluorescent transamidation assay (dansylcadaverine incorporation into methylated casein, DCC-assay) as described [Buchold, C.; Hils, M.; Gerlach, U.; Weber, J.; Pelzer, C.; Heil, A.; Aeschlimann, D.; Pasternack, R. Features of ZED1227: The First-In-Class Tissue Transglutaminase Inhibitor Undergoing Clinical Evaluation for the Treatment of Celiac Disease. Cells 2022, 11, 1667. https://doi.org/10.3390/cells11101667]. Casein is one of the best known high molecular weight (24 kDa) protein substrates for transglutaminases. Please note, the IC50 value of Ref. 3 (A8) published in U.S. Pat. No. 9,434,763 B2 cannot be compared to the present data, relying on a fluorogenic isopeptidase assay.
To this extent, inhibition data were determined using the classical fluorescent transamidation assay (dansylcadaverine incorporation into methylated casein, DCC-assay) as described in Büchold et al. [Büchold, C.; Hils, M.; Gerlach, U.; Weber, J.; Pelzer, C.; Heil, A.; Aeschlimann, D.; Pasternack, R. Features of ZED1227: The First-In-Class Tissue Transglutaminase Inhibitor Undergoing Clinical Evaluation for the Treatment of Celiac Disease. Cells 2022, 11, 1667. https://doi.org/10.3390/cells11101667]. Casein is one of the best known high molecular weight (24 kDa) protein substrates for transglutaminases. Inhibition data of the inventive compounds was compared with inhibition of compounds disclosed in U.S. Pat. No. 9,434,763 B2, particularly, compound A8, which is denoted herein as Reference 3. It is noteworthy that the IC50 values of compounds A8 published in U.S. Pat. No. 9,434,763 B2 and E16 from U.S. Pat. No. 11,072,634 B2 cannot be compared to the present data, relying on a fluorogenic isopeptidase assay.
For the determination of potency of inhibitors against tissue transglutaminase, the incorporation of dansylcadaverine into dimethylcasein (Zedira product T036, Lorand et al., Anal Biochem, 1971, 44:221-31) was measured using recombinant human transglutaminase 2 (Zedira Product T022).
The tissue transglutaminase is diluted in buffer (50 mM Tris-HCl, 7.5 mM CaCl2), 150 mM NaCl, pH=7.4). The final concentration of TG2 in the assay is 10 nM.
A 10 mM inhibitor stock solution is prepared in DMSO, and from this a serial 1:2-fold dilution series is prepared also in DMSO. Each of the initial dilutions is subsequently diluted 1:50-fold with buffer (50 mM Tris-HCl, 7.5 mM CaCl2), 150 mM NaCl, pH=7.4) to yield the final working dilutions containing 2% (v/v) DMSO.
15 μl of inhibitor working dilution are added per well of a 96 well microtiter plate. As control, 15 μl of a 2% (v/v) DMSO solution prepared using the buffer mentioned above are added per well.
Immediately before starting the assay, 600 μl transglutaminase working solution are added to 11.4 ml assay buffer (50 mM Tris-HCl, 10 mM CaCl2), 10 mM glutathione, 2.5% glycerol, 16.7 µM dansylcadaverine, 4 uM N,N-dimethylcasein, 200 mM NaCl, pH=8.0). 285 μl of this reaction mix are added per well containing the inhibitor.
Increase in fluorescence is measured using λex=330 nm and λem=500 nm at 37° C. for 30 min. A slope of the increase in fluorescence between 20 and 30 min is calculated for determination of the IC50 value (inhibitor concentration at which 50% of the initial activity is blocked).
Analysis of enzymatic activity is performed by calculation of the slope of an increase in fluorescence intensity. IC50 values are calculated by plotting the enzymatic activity (as percentage from control containing 2% DMSO instead of inhibitor) against the inhibitor concentration. IC50 is defined as the inhibitor concentration blocking 50% of initial enzyme activity.

[2] = Caco-2 permeability assay (CacoReady kit); type: in vitro ADME; conditions: human, Caco-2, Caco-2 barrier, CacoReady kit; above 1×10^−6 cm/s classified as permeable
Protocol: Permeability coefficients (Papp values) were obtained from Caco-2 barrier studies predicting oral/intestinal bioavailability of the tested compounds. The assays were performed by using CacoReady™ ready-to-use kits from ReadyCell according to the manufacturers protocol.

[3] = logD by shake flask method (octanol / PBS pH 7.4, HPLC); type: physicochemical; conditions: octanol / PBS pH 7.4, shake flask
Protocol: In order to classify the inventive compounds according to their lipophilicity, LogD values (distribution coefficient) were determined by means of the well-established shake flask method, measuring the partition of a compound between an octanol and phosphate-buffered saline (PBS, pH 7.4) by HPLC.
The LogD is pH dependent and is a “predictor” for in-vivo properties. LogD combines lipophilicity (intrinsic structural property of the molecule, logP) and ionizability (pKa). Compounds with a moderate lipophilicity (LogD values from 0 to 3) are usually advantaged for oral absorption, being in balance between solubility and permeability. However, sophisticated formulation of a compound might improve oral bioavailability for highly lipophilic compounds.

| IC50 [1] | Papp [2] | logD [3] | SMILES |
| --- | --- | --- | --- |
| 400 to 2500 nM | < 1 ×10⁻⁶ cm/s | < 1 | CNC(=O)C(=O)CC[C@H](NC(=O)c1nc(C2(C)CC2)no1)C(=O)Nc1cccn(CC(=O)NC2C3CC4CC2CC(C(N)=O)(C4)C3)c1=O (stereo partly drawn) [II-196, (S)-N1-(1-(2-(4-aminoadamantane-1-carboxamide)-2-oxoethyl)-2-oxo-1,2-dihydropyridin-3-yl)-N6-methyl-2-(3-(1-methylcyclopropyl)-1,2,4-oxadiazole-5-carboxamido)-5-oxohexanediamide] |
| 400 to 2500 nM | < 1 ×10⁻⁶ cm/s | 1 to 3 | CNC(=O)C(=O)CC[C@H](NC(=O)c1oc2ccccc2c1C)C(=O)Nc1cccn(CC(=O)NC2(C(=O)OC)C3CC4CC(C3)CC2C4)c1=O (stereo partly drawn) [II-74, (S)-N1-(1-(2-(2-methyladamantane-2-carboxylate-2-amino)-2-oxoethyl)-2-oxo-1,2-dihydropyridin-3-yl)-N6-methyl-2-(3-methylbenzofuran-2-carboxamido)-5-oxohexanediamide] |
| < 40 nM | 1 to 10 ×10⁻⁶ cm/s | 1 to 3 | CNC(=O)C(=O)CC[C@H](NC(=O)c1cc2ccccc2o1)C(=O)Nc1cccn(CC(=O)NC2C3CC4CC(C3)CC2C4)c1=O (stereo partly drawn) [II-2, (S)-2-(benzofuran-2-carboxamido)-N1-(1-(2-(2-adamantylamino)-2-oxoethyl)-2-oxo-1,2-dihydropyridin-3-yl)-N6-methyl-5-oxohexanediamide] |
| 40 to 400 nM | 1 to 10 ×10⁻⁶ cm/s | 1 to 3 | CNC(=O)C(=O)CC[C@H](NC(=O)c1nc(Cl)sc1Cl)C(=O)Nc1cccn(CC(=O)NC2C3CC4CC(C3)CC2C4)c1=O (stereo partly drawn) [II-32, (S)-2-(2,5-dichlorothiazole-4-carboxamido)-N1-(1-(2-(2-adamantylamino)-2-oxoethyl)-2-oxo-1,2-dihydropyridin-3-yl)-N6-methyl-5-oxohexanediamide] |
| 400 to 2500 nM | 1 to 10 ×10⁻⁶ cm/s | 1 to 3 | CNC(=O)C(=O)CC[C@H](NC(=O)c1ncc(OC)o1)C(=O)Nc1cccn(CCC(=O)NC2C3CC4CC(C3)CC2C4)c1=O (stereo partly drawn) [II-166, (S)-N1-(1-(3-(2-adamantylamino)-3-oxopropyl)-2-oxo-1,2-dihydropyridin-3-yl)-2-(5-methoxyoxazole-2-carboxamido)-N6-methyl-5-oxohexanediamide] |
| 40 to 400 nM | < 1 ×10⁻⁶ cm/s | < 1 | CNC(=O)C(=O)CC[C@H](NC(=O)c1ccnn1C)C(=O)Nc1cccn(CC(=O)N[C@H]2C[C@H]3CC[C@]2(C)C3(C)C)c1=O [II-163, (S)-N1-methyl-5-(1-methyl-1H-pyrazole-5-carboxamido)-2-oxo-N6-(2-oxo-1-(2-oxo-2-((1R,2S,4R)-1,7,7-trimethylbicyclo[2.2.1]heptan-2-ylamino)ethyl)-1,2-dihydropyridin-3-yl)hexanediamide] |
| < 40 nM | 1 to 10 ×10⁻⁶ cm/s | 1 to 3 | CNC(=O)C(=O)CC[C@H](NC(=O)c1[nH]c2ccccc2c1C)C(=O)Nc1cccn(CC(=O)NC2C3CC4CC(C3)CC2C4)c1=O (stereo partly drawn) [II-11, (S)-N1-(1-(2-(2-adamantylamino)-2-oxoethyl)-2-oxo-1,2-dihydropyridin-3-yl)-N6-methyl-2-(3-methyl-1H-indole-2-carboxamido)-5-oxohexanediamide] |
| 400 to 2500 nM | 1 to 10 ×10⁻⁶ cm/s | 1 to 3 | CNC(=O)C(=O)CC[C@H](NC(=O)c1scc(C)c1Cl)C(=O)Nc1cccn(CC(=O)NC2C3CC4CC(C3)CC2C4)c1=O (stereo partly drawn) [II-43, (S)-2-(3-chloro-4-methylthiophene-2-carboxamido)-N1-(1-(2-(2-adamantylamino)-2-oxoethyl)-2-oxo-1,2-dihydropyridin-3-yl)-N6-methyl-5-oxohexanediamide] |
| 40 to 400 nM | < 1 ×10⁻⁶ cm/s | 1 to 3 | CNC(=O)C(=O)CC[C@H](NC(=O)[C@@H]1CCCN1C)C(=O)Nc1cccn(CC(=O)NC2C3CC4CC(C3)CC2C4)c1=O (stereo partly drawn) [II-54, (S)-N1-(1-(2-(2-adamantylamino)-2-oxoethyl)-2-oxo-1,2-dihydropyridin-3-yl)-N6-methyl-2-((S)-1-methylpyrrolidine-2-carboxamido)-5-oxohexanediamide] |
| 40 to 400 nM | < 1 ×10⁻⁶ cm/s | 1 to 3 | CNC(=O)C(=O)CC[C@H](NC(=O)[C@@H]1CCCCN1)C(=O)Nc1cccn(CC(=O)NC2C3CC4CC(C3)CC2C4)c1=O (stereo partly drawn) [II-58, (S)-N1-(1-(2-(2-adamantylamino)-2-oxoethyl)-2-oxo-1,2-dihydropyridin-3-yl)-N6-methyl-5-oxo-2-((S)-piperidine-2-carboxamido)hexanediamide] |
| 40 to 400 nM | 1 to 10 ×10⁻⁶ cm/s | 1 to 3 | CCc1c(C(=O)N[C@@H](CCC(=O)C(=O)NC2CCCCC2)C(=O)Nc2cccn(CC(=O)NC34CC(C3)C4)c2=O)oc2ccccc12 [II-182, (S)-N1-(1-(2-(bicyclo[1.1.1]pentan-1-ylamino)-2-oxoethyl)-2-oxo-1,2-dihydropyridin-3-yl)-N6-cyclohexyl-2-(3-ethylbenzofuran-2-carboxamido)-5-oxohexanediamide] |
| 40 to 400 nM | 1 to 10 ×10⁻⁶ cm/s | 3 to 5 | CNC(=O)C(=O)CC[C@H](NC(=O)c1oc2ccccc2c1C)C(=O)Nc1cccn(CC(=O)N[C@H]2C[C@H]3CC[C@@]2(C)C3(C)C)c1=O [II-92, (S)-N1-methyl-5-(3-methylbenzofuran-2-carboxamido)-2-oxo-N6-(2-oxo-1-(2-oxo-2-((1S,2S,4R)-1,7,7-trimethylbicyclo[2.2.1]heptan-2-ylamino)ethyl)-1,2-dihydropyridin-3-yl)hexanediamide] |
